Test results reported in ChEMBL document CHEMBL3734659, “Identification of tris-(phenylalkyl)amines as new selective h5-HT2Breceptor antagonists” (Medchemcomm, 2015).
Calls of active or inactive are those of the source. The rule behind the calls is not given here.

How the values were obtained:
[1] = biological target: T1, 5-hydroxytryptamine receptor 2B (Homo sapiens, UniProt P41595); assay: Agonist activity at human recombinant 5-HT2B receptor expressed in Flp-In HEK cells preincubated for 10 mins by FLIPR based calcium mobilization assay; type: functional, cell-based; conditions: HEK293
T1 sequence (P41595 whole entry): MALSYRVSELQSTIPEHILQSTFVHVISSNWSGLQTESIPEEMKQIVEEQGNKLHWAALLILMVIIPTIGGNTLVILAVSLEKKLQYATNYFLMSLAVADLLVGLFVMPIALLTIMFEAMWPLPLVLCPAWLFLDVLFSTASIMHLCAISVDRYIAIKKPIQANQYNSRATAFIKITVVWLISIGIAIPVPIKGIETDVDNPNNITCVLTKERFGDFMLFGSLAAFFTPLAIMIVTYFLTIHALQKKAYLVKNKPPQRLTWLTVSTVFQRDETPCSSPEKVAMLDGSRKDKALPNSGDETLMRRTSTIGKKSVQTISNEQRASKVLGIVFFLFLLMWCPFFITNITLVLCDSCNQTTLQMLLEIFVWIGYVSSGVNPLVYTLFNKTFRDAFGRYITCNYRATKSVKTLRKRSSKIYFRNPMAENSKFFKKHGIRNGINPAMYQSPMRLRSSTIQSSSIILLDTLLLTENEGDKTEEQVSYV

[2] = biological target: Muscarinic acetylcholine receptor M3 (Homo sapiens) (UniProt P20309); assay: Displacement of [3H]NMS from human Muscarinic acetylcholine M3 receptor stably expressed in CHO cell after 90 mins by scintillation counting method; type: cell-based
Chain of Muscarinic acetylcholine receptor M3 (Homo sapiens) (P20309 whole entry, looked up): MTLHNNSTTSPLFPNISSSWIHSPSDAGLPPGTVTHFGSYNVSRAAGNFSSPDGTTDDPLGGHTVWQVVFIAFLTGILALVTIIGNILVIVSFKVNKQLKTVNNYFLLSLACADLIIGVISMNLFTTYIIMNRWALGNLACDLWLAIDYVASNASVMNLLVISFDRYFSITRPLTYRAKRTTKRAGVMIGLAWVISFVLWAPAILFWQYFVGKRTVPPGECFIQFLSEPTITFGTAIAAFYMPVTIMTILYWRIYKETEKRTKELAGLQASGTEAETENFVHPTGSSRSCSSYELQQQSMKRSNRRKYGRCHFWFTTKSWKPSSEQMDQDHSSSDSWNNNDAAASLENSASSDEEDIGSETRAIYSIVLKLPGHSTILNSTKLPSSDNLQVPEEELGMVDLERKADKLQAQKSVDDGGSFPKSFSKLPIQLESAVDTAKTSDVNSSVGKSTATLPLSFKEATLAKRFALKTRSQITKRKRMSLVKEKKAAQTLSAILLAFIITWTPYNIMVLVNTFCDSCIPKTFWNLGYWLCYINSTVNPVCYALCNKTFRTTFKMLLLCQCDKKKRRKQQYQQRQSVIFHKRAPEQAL

[3] = biological target: Muscarinic acetylcholine receptor M4 (Homo sapiens) (UniProt P08173); assay: Displacement of [3H]NMS from human Muscarinic acetylcholine M4 receptor stably expressed in CHO cell after 90 mins by scintillation counting method; type: cell-based
Chain of Muscarinic acetylcholine receptor M4 (Homo sapiens) (P08173 whole entry): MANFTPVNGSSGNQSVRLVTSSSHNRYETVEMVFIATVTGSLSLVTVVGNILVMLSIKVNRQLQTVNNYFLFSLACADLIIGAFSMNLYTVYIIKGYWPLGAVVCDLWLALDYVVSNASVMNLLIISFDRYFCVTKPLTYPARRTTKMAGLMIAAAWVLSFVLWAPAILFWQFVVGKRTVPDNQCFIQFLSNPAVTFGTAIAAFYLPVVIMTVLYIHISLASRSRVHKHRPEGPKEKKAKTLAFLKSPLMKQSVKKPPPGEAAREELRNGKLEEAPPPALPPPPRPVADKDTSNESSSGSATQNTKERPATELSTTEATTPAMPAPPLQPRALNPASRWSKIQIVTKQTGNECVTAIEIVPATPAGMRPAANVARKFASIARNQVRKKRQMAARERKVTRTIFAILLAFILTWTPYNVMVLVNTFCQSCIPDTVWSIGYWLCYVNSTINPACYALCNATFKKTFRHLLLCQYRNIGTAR

[4] = biological target: Muscarinic acetylcholine receptor M5 (Homo sapiens) (UniProt P08912); assay: Displacement of [3H]NMS from human Muscarinic acetylcholine M5 receptor stably expressed in CHO cell after 90 mins by scintillation counting method; type: cell-based
Chain of Muscarinic acetylcholine receptor M5 (Homo sapiens) (P08912 whole entry): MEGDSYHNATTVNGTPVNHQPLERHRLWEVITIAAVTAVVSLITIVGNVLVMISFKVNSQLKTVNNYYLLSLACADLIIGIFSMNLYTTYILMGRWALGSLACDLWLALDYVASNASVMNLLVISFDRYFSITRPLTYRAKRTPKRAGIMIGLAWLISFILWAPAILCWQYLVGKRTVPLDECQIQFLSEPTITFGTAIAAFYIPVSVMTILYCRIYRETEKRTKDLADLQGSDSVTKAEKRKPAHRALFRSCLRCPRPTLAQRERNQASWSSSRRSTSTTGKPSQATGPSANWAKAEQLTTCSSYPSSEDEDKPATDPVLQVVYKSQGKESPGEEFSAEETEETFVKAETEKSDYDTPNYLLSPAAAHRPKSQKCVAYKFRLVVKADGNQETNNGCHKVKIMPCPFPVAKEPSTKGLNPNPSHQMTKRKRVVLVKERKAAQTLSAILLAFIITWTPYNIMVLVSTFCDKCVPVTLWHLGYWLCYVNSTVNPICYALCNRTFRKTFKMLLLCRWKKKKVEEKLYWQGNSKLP

[5] = species on record: Rattus norvegicus; assay: Displacement of [3H]Flunitrazepam from rat brain BZP after 90 mins by scintillation counting method
[6] = biological target: D(1A) dopamine receptor (Homo sapiens, UniProt P21728); assay: Displacement of [3H]SCH23390 from human recombinant dopamine D1 receptor expressed in HEKT cell membrane after 90 mins by scintillation counting method; type: cell membranes
[7] = biological target: Histamine H3 receptor (Homo sapiens) (UniProt Q9Y5N1); assay: Displacement of [3H]alpha-methylhistamine from human H3 Histamine receptors expressed in HEK Flp-In cell after 90 mins by scintillation counting method; type: cell-based; conditions: HEK293
[8] = biological target: Muscarinic acetylcholine receptor M4 (Homo sapiens) (UniProt P08173); assay: Displacement of [3H]QNB from human Muscarinic acetylcholine M4 receptor stably expressed in CHO cell after 90 mins by scintillation counting method; type: cell-based
[9] = biological target: D(1B) dopamine receptor (Homo sapiens) (UniProt P21918); assay: Displacement of [3H]SCH23390 from human recombinant dopamine D5 receptor expressed in HEKT cell membrane after 90 mins by scintillation counting method; type: cell membranes
Chain of D(1B) dopamine receptor (Homo sapiens) (P21918 whole entry): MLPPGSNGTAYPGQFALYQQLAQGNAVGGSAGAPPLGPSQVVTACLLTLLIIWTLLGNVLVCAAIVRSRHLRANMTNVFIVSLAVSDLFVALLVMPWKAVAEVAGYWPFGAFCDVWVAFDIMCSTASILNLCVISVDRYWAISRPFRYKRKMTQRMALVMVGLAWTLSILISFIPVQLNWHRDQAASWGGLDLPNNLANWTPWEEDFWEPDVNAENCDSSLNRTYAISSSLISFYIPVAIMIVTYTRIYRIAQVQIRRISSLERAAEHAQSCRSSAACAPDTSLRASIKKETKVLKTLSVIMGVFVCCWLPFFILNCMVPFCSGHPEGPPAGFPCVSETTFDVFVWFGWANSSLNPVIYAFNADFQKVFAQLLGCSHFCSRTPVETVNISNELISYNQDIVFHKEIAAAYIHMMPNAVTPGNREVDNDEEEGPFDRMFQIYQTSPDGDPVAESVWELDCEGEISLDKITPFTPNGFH

[10] = biological target: Sodium-dependent noradrenaline transporter (Homo sapiens, UniProt P23975); assay: Displacement of [3H]Nisoxetine from human norepinephrine transporter stably expressed in HEK293 cells after 30 mins by neurotransmitter transporter uptake assay; type: cell-based
[11] = biological target: Delta-type opioid receptor (Homo sapiens) (UniProt P41143); assay: Displacement of [3H]DADLE from human delta-opioid receptor stably expressed in HEK cell membrane after 90 mins by scintillation counting method; type: cell membranes; conditions: HEK293
[12] = biological target: Muscarinic acetylcholine receptor M1 (Homo sapiens) (UniProt P11229); assay: Displacement of [3H]NMS from human Muscarinic acetylcholine M1 receptor stably expressed in CHO cell after 90 mins by scintillation counting method; type: cell-based
[13] = biological target: T1, 5-hydroxytryptamine receptor 2B; assay: Displacement of [3H]LSD from human recombinant 5-HT2B receptor stably expressed in HEK cell membrane at 10 uM after 90 mins by scintillation counting method; type: cell membranes; conditions: HEK293
[14] = biological target: Alpha-1B adrenergic receptor (Homo sapiens) (UniProt P35368); assay: Displacement of [3H]Prazosin from human recombinant alpha 1B receptor expressed in HEKT cell membrane after 90 mins by scintillation counting method; type: cell membranes
[15] = biological target: Muscarinic acetylcholine receptor M2 (Homo sapiens) (UniProt P08172); assay: Displacement of [3H]NMS from human Muscarinic acetylcholine M2 receptor stably expressed in CHO cell after 90 mins by scintillation counting method; type: cell-based
[16] = biological target: 5-hydroxytryptamine receptor 1D (Homo sapiens, UniProt P28221); assay: Displacement of [3H]5-CT from human recombinant 5-HT1D receptor expressed in HEKT cell membrane after 90 mins by scintillation counting method; type: cell membranes
[17] = biological target: Alpha-2C adrenergic receptor (Homo sapiens, UniProt P18825); assay: Displacement of [3H]Rauwolscine from human recombinant alpha 2C receptor stably expressed in MDCK cells after 90 mins by scintillation counting method; type: cell-based
Chain of Alpha-2C adrenergic receptor (P18825 whole entry): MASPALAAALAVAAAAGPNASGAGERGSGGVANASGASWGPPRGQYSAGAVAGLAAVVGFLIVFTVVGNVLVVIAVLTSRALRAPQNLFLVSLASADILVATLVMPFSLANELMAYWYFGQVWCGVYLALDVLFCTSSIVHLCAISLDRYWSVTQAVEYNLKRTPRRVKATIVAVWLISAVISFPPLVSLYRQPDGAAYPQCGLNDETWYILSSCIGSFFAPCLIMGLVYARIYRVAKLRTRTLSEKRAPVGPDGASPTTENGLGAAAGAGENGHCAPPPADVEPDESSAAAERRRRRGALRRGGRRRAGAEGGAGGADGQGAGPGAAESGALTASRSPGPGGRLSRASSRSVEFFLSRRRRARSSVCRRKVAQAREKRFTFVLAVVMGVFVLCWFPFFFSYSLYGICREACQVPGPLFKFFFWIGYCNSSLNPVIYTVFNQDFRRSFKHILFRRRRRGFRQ

[18] = biological target: Alpha-2B adrenergic receptor (Homo sapiens, UniProt P18089); assay: Displacement of [3H]Rauwolscine from human recombinant alpha 2B receptor expressed in HEKT cells after 90 mins by scintillation counting method; type: cell-based
Chain of Alpha-2B adrenergic receptor (P18089 whole entry): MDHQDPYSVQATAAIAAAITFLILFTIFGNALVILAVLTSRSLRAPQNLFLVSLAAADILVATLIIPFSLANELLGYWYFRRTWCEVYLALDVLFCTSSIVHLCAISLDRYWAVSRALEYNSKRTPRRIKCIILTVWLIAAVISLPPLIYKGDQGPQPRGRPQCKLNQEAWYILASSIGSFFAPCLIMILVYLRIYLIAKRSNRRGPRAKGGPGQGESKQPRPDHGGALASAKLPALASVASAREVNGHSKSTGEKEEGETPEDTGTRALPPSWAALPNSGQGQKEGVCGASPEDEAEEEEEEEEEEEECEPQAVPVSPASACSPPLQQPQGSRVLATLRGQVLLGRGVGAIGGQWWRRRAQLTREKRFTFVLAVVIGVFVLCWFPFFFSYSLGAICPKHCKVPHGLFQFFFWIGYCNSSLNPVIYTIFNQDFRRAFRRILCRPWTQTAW

[19] = biological target: T2, 5-hydroxytryptamine receptor 2C (Homo sapiens) (UniProt P28335); assay: Displacement of [3H]mesulergine from human recombinant 5-HT2C receptor expressed in Flp-IN HEK cell membrane at 10 uM after 90 mins by scintillation counting method; type: cell membranes; conditions: HEK293
T2 sequence (whole entry): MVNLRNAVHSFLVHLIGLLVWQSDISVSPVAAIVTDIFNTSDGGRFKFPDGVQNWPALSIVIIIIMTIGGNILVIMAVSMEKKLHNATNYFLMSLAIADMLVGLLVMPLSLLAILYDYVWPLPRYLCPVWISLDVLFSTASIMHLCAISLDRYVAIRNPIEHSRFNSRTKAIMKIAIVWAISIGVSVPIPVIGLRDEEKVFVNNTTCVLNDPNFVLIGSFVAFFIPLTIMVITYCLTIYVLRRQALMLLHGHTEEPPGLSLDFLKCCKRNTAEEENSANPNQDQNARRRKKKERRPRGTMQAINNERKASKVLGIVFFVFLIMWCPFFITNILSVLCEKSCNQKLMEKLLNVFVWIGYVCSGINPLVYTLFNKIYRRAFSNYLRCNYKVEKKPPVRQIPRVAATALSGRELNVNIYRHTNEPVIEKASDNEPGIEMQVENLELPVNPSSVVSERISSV

[20] = biological target: T3, 5-hydroxytryptamine receptor 2A (Homo sapiens, UniProt P28223); assay: Displacement of [3H]ketanserin from human recombinant 5-HT2A receptor expressed in HEKT cell membrane at 10 uM after 90 mins by scintillation counting method; type: cell membranes
T3 sequence (P28223 whole entry): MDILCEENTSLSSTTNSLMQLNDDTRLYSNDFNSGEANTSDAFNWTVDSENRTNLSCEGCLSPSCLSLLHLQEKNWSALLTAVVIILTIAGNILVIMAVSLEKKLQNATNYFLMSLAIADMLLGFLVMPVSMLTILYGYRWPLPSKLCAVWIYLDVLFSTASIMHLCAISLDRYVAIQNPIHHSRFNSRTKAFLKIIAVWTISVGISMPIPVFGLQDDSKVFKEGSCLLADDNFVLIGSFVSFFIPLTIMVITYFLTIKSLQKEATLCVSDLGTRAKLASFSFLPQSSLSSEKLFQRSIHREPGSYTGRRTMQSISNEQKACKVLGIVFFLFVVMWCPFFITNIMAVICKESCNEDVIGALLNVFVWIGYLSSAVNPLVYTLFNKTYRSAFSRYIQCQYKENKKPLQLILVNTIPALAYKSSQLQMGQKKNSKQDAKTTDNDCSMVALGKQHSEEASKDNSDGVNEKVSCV

[21] = biological target: 5-hydroxytryptamine receptor 3A (Homo sapiens) (UniProt P46098); assay: Displacement of [3H]GR65630 from human recombinant 5-HT3 receptor expressed in HEKT cell membrane after 90 mins by scintillation counting method; type: cell membranes
[22] = biological target: D(3) dopamine receptor (Homo sapiens, UniProt P35462); assay: Displacement of [3H]N-methylspiperone from human recombinant dopamine D3 receptor expressed in HEKT cell membrane after 90 mins by scintillation counting method; type: cell membranes
[23] = biological target: T3, 5-hydroxytryptamine receptor 2A; assay: Antagonist activity at human recombinant 5-HT2A receptor expressed in Flp-In HEK cells in the presence of agonist preincubated for 10 mins by FLIPR based calcium mobilization assay; type: functional, cell-based, HEK293
[24] = biological target: T1, 5-hydroxytryptamine receptor 2B; assay: […] antagonist activity at human recombinant 5-HT2B receptor stably expressed in HEK cell membrane by schild plot method; set-up: species or system HEK293; conditions: read-out: pA2 (converted)
[25] = biological target: 5-hydroxytryptamine receptor 5A (Homo sapiens) (UniProt P47898); assay: Displacement of [3H]LSD from human recombinant 5-HT5A receptor expressed in Flp-In CHO cell membrane after 90 mins by scintillation counting method; type: cell membranes
[26] = biological target: Beta-1 adrenergic receptor (Homo sapiens, UniProt P08588); assay: Displacement of [3H]CGP12177 human recombinant beta 1 adrenergic recptor expressed in CHO Flp-In cells after 90 mins by scintillation counting method; type: cell-based
Chain of Beta-1 adrenergic receptor (P08588 whole entry): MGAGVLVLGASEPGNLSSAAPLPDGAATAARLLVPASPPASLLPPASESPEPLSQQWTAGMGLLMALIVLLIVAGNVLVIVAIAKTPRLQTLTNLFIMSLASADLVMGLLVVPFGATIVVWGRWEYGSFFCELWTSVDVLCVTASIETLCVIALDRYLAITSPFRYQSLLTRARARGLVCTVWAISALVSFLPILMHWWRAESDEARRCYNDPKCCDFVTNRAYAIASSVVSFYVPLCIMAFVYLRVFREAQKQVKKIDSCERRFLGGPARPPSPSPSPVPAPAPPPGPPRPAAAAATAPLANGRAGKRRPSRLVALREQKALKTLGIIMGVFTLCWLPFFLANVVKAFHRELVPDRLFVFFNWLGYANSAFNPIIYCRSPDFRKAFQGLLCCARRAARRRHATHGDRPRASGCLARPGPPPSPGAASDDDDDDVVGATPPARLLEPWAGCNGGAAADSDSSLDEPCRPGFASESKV

[27] = biological target: Histamine H1 receptor (Homo sapiens, UniProt P35367); assay: Displacement of [3H]Pyrilamine from human H1 Histamine receptors stably expressed in HEK cell membrane after 90 mins by scintillation counting method; type: cell membranes, HEK293
Chain of Histamine H1 receptor (P35367 whole entry): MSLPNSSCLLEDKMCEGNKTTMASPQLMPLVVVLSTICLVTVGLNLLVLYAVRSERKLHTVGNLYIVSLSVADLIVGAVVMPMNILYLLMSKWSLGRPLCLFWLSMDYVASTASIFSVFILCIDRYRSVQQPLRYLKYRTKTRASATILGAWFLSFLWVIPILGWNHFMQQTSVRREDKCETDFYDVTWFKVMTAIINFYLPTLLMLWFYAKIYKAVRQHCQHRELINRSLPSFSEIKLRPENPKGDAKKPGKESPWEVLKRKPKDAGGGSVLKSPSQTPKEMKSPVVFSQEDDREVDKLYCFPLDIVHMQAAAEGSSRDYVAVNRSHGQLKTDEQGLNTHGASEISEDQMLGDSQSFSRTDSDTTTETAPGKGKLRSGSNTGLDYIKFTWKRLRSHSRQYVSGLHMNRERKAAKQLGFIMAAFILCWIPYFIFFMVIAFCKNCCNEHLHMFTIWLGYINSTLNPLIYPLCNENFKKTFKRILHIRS

[28] = biological target: Muscarinic acetylcholine receptor M5 (Homo sapiens) (UniProt P08912); assay: Displacement of [3H]QNB from human Muscarinic acetylcholine M5 receptor stably expressed in CHO cell after 90 mins by scintillation counting method; type: cell-based
[29] = biological target: Alpha-1A adrenergic receptor (Homo sapiens, UniProt P35348); assay: Displacement of [3H]Prazosin from human recombinant alpha 1A receptor after 90 mins by scintillation counting method

Q: For `COc1ccc(CCN(CCCc2ccccc2)CCc2ccc3c(c2)OCO3)cc1OC`, which Activity [1] is on record?
A: inactive

Q: And the Activity [2]?
A: inactive

Q: And the Activity [3]?
A: inactive

Q: And the Activity [4]?
A: inactive

Q: What about the Activity [5] of the same compound?
A: inactive

Q: What about the Ki [6] of the same compound?
A: 1680 nM

Q: And the Activity [7]?
A: inactive

Q: What about the Activity [8] of the same compound?
A: inactive

Q: And the Activity [9]?
A: inactive

Q: And the Ki [10]?
A: 11 nM

Q: What about the Activity [11] of the same compound?
A: inactive

Q: What about the Activity [12] of the same compound?
A: inactive

Q: What about the inhibition [13] of the same compound?
A: > 50%

Q: And the Activity [14]?
A: inactive

Q: And the Activity [15]?
A: inactive

Q: What about the Ki [16] of the same compound?
A: 451 nM

Q: What about the Ki [17] of the same compound?
A: 429 nM

Q: And the Ki [18]?
A: 29 nM

Q: And the inhibition [19]?
A: > 50%

Q: What about the inhibition [20] of the same compound?
A: > 50%

Q: And the Activity [21]?
A: inactive

Q: And the Ki [22]?
A: 498 nM

Q: What about the IC50 [23] of the same compound?
A: 5010 nM

Q: What about the Kb [24] of the same compound?
A: 550 nM

Q: And the Activity [25]?
A: inactive

Q: What about the Ki [26] of the same compound?
A: 1890 nM

Q: What about the Ki [27] of the same compound?
A: 1300 nM

Q: And the Activity [28]?
A: inactive

Q: And the Ki [29]?
A: 333 nM
